Experimental data reported in US20060073541A1, “Lipophilic dyes and their application for detection of myelin” (priority 2004, published 2006).

Tests used:
[1] = test system: myelin; experiment: Myelin staining in combination with NeuroTrace Nissl stains and DAPI on mouse brain cryosections; settings: 500 nM dye, NeuroTrace Nissl stain 1:300, DAPI
Description: (§1) A 16 μm mouse brain cryosection, cross section through diencephalon, was rehydrated for 20 minutes in PBT (0.5 M phosphate-buffered saline containing 0.2% Triton X-100 and 0.2% BSA). The three dyes were mixed into the final stain solution (in PBS), such that there was a concentration of 500 nM of Compound 1, 1:300 dilution of NeuroTrace Red Nissl Stain, and 0.1 μg/ml DAPI. Sections were labeled in this combination for 20 minutes, then washed well in PBT prior to mounting in Prolong antifade mounting medium (Molecular Probes, Inc.). Images were collected on a Nikon E800 epifluorescence upright microscope using a Princeton MicroMax cooled CCD digital camera, MetaMorph acquisition software, and Adobe Photoshop image analysis software.
as §1, with “(0.5M” for “(0.5 M”, “nM” for “nM of”, “2,” for “1,”
12 μm thick mouse brain cryosections, either cross-sectioned through the mesencephalon or sagittal sections, were rehydrated and permeabilized for 20 minutes in PBT (PBS with 0.2% Triton X-100 and 0.2% BSA) then labeled 30 minutes with 500 nM Compound 4 in PBS. Sections were washed 3×10 minutes with PBT then labeled 20 minutes with NeuroTrace Green Nissl Stain (diluted 1:300 from stock). Sections were washed 3×5 minutes in PBS, labeled 1.5 minutes with 0.2 μg/mL DAPI, washed 3×5 minutes in PBS again, and mounted in Prolong Gold antifade mounting medium. Samples were compared to sections labeled with Compound 1 and Compound 2 as controls. Images were collected on a Nikon E800 epifluorescence upright microscope using a Princeton MicroMax cooled CCD digital camera, MetaMorph acquisition software, and Adobe Photoshop image analysis software.

[2] = test system: myelin; experiment: Demyelinated mouse model test: control versus shiverer mouse brain cryosections
Description: To illustrate the use of the present dyes for studying myelin diseases such as multiple sclerosis, adrenoleukodystrophy, Guillain-Barre syndrome, and others, Compound 1 was compared against rat anti-myelin basic protein (anti-MBP) primary antibody on control mouse brains versus shiverer mouse brain. […] Brain tissues were cryosectioned at 16 μm and mounted on PLUS slides. Control and shiverer tissues were treated either with anti-MBP primary and Alexa Fluor 488 goat anti-rat secondary or Compound 1. Tissues treated with the antibody were rehydrated and permeabilized in PBT (0.05 M phosphate buffered saline with 0.2% Triton X-100 and 0.2% bovine serum albumin (BSA)) for 20 minutes, then blocked in 5% normal goat serum/3% BSA/PBT for 1 hour. Tissues were then incubated overnight at 4° C. with 5 μg/mL rat anti-MBP (Chemicon, MAB386) in blocking solution. After washing 3×10 minutes in PBT, they were then incubated for 2 hours with 5 μg/mL Alexa Fluor 488 goat anti-rat secondary at room temperature. After further washing 3×10 minutes in PBT, tissues were counterstained with 0.2 μg/ml DAPI, washed 3×5 minutes in PBT, and mounted with ProLong antifade mounting medium (Invitrogen P36930). Tissues that were labeled with Compound 1 were rehydrated and permeabilized as above, then labeled 20 minutes with 500 nM Compound 1 and 0.2 μg/mL DAPI (together) in PBT. Tissues were washed 3×10 minutes PBT, then mounted as above. Images were collected on a Nikon E800 epifluorescence upright microscope using a Princeton MicroMax cooled CCD digital camera, an Omega XF100-2 FITC filter set, MetaMorph acquisition software, and Adobe Photoshop image analysis software. […] Myelin labeling was negative, as expected, for shiverer mice for both anti-MBP and Compound 1, illustrating that the present dyes work as well as anti-MBP for demyelination determination.

[3] = test system: myelin; experiment: Myelin staining of mouse brain cryosections, label pattern comparison; settings: for labeling of myelin (selectivity): 1 μM or 500 nM in PBS; for myelin label pattern / non-specific background labeling / single axon labeling: 16 μm mouse brain cryosections, dyes 500 nM 20 minutes; for myelin label pattern: sagittal and cross sections, anti-MBP 5 μg/ml overnight; for emission wavelength (Em) / excitation wavelength (Ex): dye on labeled mouse brain cryosections
Description: In an exemplary embodiment, the present method stains and detects myelin in brain tissue sections that have been immobilized on a glass slide. In this instance a protocol for labeling brain cryosections comprises: • 1. Rehydrate and/or Permeabilize. Bring tissue sections on slides to room temperature, then rehydrate in either PBS (phosphate-buffered saline, 0.05M, pH 7.4) or PBT (PBS+0.2% Triton X-100) for at least 20 minutes. Permeabilization with Triton X-100 is not necessary for labeling using the present lipophilic dyes, but is likely necessary for any other counterstains or antibodies to be used. • 2. Prepare Label Solution. Prepare the labeling solution by diluting the stock solution 300-fold with PBS to make a final recommended concentration of 500 nM dye. • 3. Label Step. Flood the section with labeling solution and stain for 20 minutes at room temperature. • 4. Wash. When labeling is complete, remove solution, rinse in PBS, and wash 3×10 minutes with PBS. • 5. Counterstaining and Mounting. At this point tissues can be counterstained as necessary, or mounted with an aqueous antifade mounting medium such as ProLong or ProLong Gold reagent.
Use of this antibody allows for specific labeling with which to compare the present lipophilic dyes and chromogenic method label patterns. […] Tissue was sectioned on a cryostat and mounted on Plus slides and stored at −80° C. Upon use, tissue sections were brought to room temperature and rehydrated in PBT (0.5 M phosphate-buffered saline containing 0.2% Triton X-100 and 0.2% BSA) for 30 minutes. Sections were blocked for 1 hour in 5% normal goat serum/3% BSA/PBT, then labeled overnight at 4° using 5 μg/ml rat anti-MBP primary antibody from Chemicon (MAB386). After washing in PBT, tissues were washed in Image-iT FX signal enhancer (136933, Molecular Probes, Inc., Eugene, Oreg.) for 30 minutes, then washed again in PBT. Sections were incubated in Alexa Fluor 488 goat anti-rat secondary antibody (A11006, Molecular Probes, Inc.) for 2 hours, washed in PBT, and mounted in ProLong antifade solution (P7481, Molecular Probes, Inc.). Images were collected on a Nikon E800 epifluorescence upright microscope using a Princeton MicroMax cooled CCD digital camera, MetaMorph acquisition software, and Adobe Photoshop image analysis software (Ex 495/Em 519, FITC Filter Set).
Other than antibody labeling techniques, myelin labeling is traditionally performed using long and complicated chromogenic (non-fluorescent) dye protocols. One of the most common is the Loyez Technique. A more recent, and more specific method is Schmued's Gold Chloride Technique. These two methods were used for comparison to the present dyes. • I. Schmued's Gold Chloride Technique. Based on a method by Laurence C. Schmued [1990. A rapid, sensitive histochemical stain for myelin in frozen brain sections. J. Histochem Cytochem. 38(5): 717-720]. Tissues were rehydrated in PBT for 30 minutes, then labeled for 3.5 hours in 0.2% gold chloride in 0.02 M neutral phosphate buffer with 0.9% sodium chloride. After a water rinse, tissues were post-fixed for 5 minutes in 2.5% sodium thiosulfate, rinsed in running tap water for 30 minutes, and mounted in mowiol. Images were collected using transmitted light on the system outlined in part A of this example. Myelin was labeled a brown-red color. […] Loyez Technique. Adapted from H. C. Cook. 1974. […] London: Butterworths. pp. 161-162. Tissues were rehydrated and permeabilized 30 minutes in PBT, then treated with 4% iron alum overnight at room temperature. After a water wash, tissues were stained overnight in a 10% alcoholic haematoxylin solution with lithium carbonate at room temperature. After two 10-minute water washes, tissues were destained for approximately 20 seconds in 4% iron alum, and washed in water. After a final wash in borax-ferricyanide to colorize the myelin blue-black, tissues were washed in water and mounted in mowiol. Images were scanned as in section B. I. Of this example. […]

[4] = test system: myelin; experiment: Detection of myelin in combination with antibodies (anti-GFAP) and DAPI on mouse brain cryosection
Description: To test whether use of Compound 1 interrupts antibody binding, Compound 1 was used in conjunction with anti-GFAP on mouse brain sections. A 16 μm mouse brain cryosection, cross-section through the rostral mesencephalon, was rehydrated and permeabilized in PBT (0.05 M phosphate buffered saline with 0.2% Triton X-100 and 0.2% BSA) for 20 minutes, the washed for 30 minutes with Image-iT FX Signal Enhancer (Molecular Probes, Inc.) to block non-specific Alexa Fluor dye binding to myelin. After washing in PBT, the section was blocked for 1 hour in 5% normal goat serum/0.2% Triton X-100/3% BSA, then incubated overnight at 4° C. in 5 μg/ml mouse anti-GFAP (glial fibrillary acidic protein) from Molecular Probes (A21282) in blocking buffer. Sections were washed well in PBT, then incubated in Alexa Fluor 680 goat anti-mouse secondary antibody (A21057, Molecular Probes, Inc.) for 2 hours. After washing in PBT, sections were labeled in 500 nM of Compound 1 for 20 minutes with 0.1 μg/ml DAPI. After a final wash in PBT, sections were mounted in Prolong antifade mountant (Molecular Probes, inc.). Images were collected on a Nikon E800 epifluorescence upright microscope using a Princeton MicroMax cooled CCD digital camera, MetaMorph acquisition software, and Adobe Photoshop image analysis software.

| SMILES | disruption of labels / compatibility with NeuroTrace Nissl stain and DAPI [1] | label pattern in combination with NeuroTrace Nissl stain and DAPI [1] | staining brightness compared with anti-MBP ([2]; control mice brain) | myelin labeling in control mice ([2]; control mice brain, 16 μm cryosections, 500 nM dye 20 minutes or 5 μg/mL anti-MBP overnight) | background labeling ([2]; general membrane labeling) | myelin labeling in shiverer mice ([2]; shiverer (demyelinated) mouse brain, 16 μm cryosections) | labeling of myelin (selectivity) ([3]; 12 μm mouse brain cryosections) | myelin label pattern [3] | non-specific background labeling [3] | single axon labeling [3] | emission wavelength (Em) [3] | excitation wavelength (Ex) [3] | label pattern in conjunction with anti-GFAP ([4]; 500 nM 20 minutes with 0.1 μg/ml DAPI after anti-GFAP / Alexa Fluor 680 secondary, rostral mesencephalon cross-section) | inhibition of staining pattern ([4]; 500 nM dye with anti-GFAP antibody labeling) | spectral qualities ([3]; 12 μm mouse brain cryosections) | concentration sufficient for labeling with minimal background ([3]; 12 μm mouse brain cryosections, in PBS) |
| --- | --- | --- | --- | --- | --- | --- | --- | --- | --- | --- | --- | --- | --- | --- | --- | --- |
| CCCCN(CCCC)c1ccc(C=Cc2cc[n+](CCC[N+](CC)(CC)CC)cc2)cc1 [Compound 1] | no evidence of disruption of any of the three labels | tracts in the fornix, fornix superior, capsula interna, and striatum | twice as bright | labeled myelin in control mice | slight background labeling | negative | selective myelin labeling | specific myelin labeling in expected axon bundles and tracts | some non-specific background labeling was visualized | single axon labeling was not seen | 594 nm | 479 nm | labeled axon tracts and bundles | no inhibition of staining pattern by either label |  |  |
| CCCCN(CCCC)c1ccc(C=CC=CC=Cc2cc[n+](CCC[N+](CC)(CC)CC)cc2)cc1 [Compound 2] | no evidence of disruption of any of the three labels | tracts in the fornix, fornix superior, capsula interna, and striatum |  |  |  |  | selective myelin labeling | specific myelin labeling in expected axon bundles and tracts | some non-specific background labeling was visualized | single axon labeling was not seen | 734 nm | 558 nm |  |  |  |  |
| CCCCN(CCCC)c1ccc(C=CC=CC=Cc2cc[n+](CCC[N+](C)(C)C)cc2)cc1 [Compound 4] | compatible with NeuroTrace Green Nissl Stain labeling and DAPI labeling | label pattern comparable to the control dyes |  |  |  |  | highly selective labeling of myelin |  |  |  |  |  |  |  | comparable to Compound 2 | 500 nM |
